{"source": "patent US8889743B2", "about": "(priority 2007, dated 2014)", "key": {"[1]": {"test_system": "Ebola virus GP pseudotype", "assay_type": "cell-based"}, "VSV GP pseudotype": {"test_system": "VSV GP pseudotype", "assay_type": "cell-based, Vesicular stomatitis virus"}, "[2]": {"test_system": "Ebola virus pseudotyped VSV particles", "assay_type": "cell-based"}, "[3]": {"test_system": "EBOV pseudotyped lentivirus", "experiment": "microbe, parasite or virus in culture", "assay_type": "cell-based, EBOV Zaire strain"}, "[4]": {"test_system": "retrovirus pseudotypes bearing Ebola virus env", "assay_type": "cell-based"}, "[5]": {"test_system": "retrovirus pseudotypes bearing eMLV (Fr-MLV) env", "assay_type": "cell-based, ecotropic murine leukemia virus"}, "[6]": {"test_system": "Venezuelan equine encephalitis virus (VEEV) pseudotyped VSV particles", "assay_type": "cell-based"}, "[7]": {"test_system": "wild type Ebola virus, Zaire strain", "assay_type": "cell-based", "conditions": "7 days"}, "[8]": {"test_system": "live Ebola virus (Zaire strain)", "assay_type": "cell-based", "conditions": "10 days"}}}
{"compound": "CCN(CC)CCCC(C)Nc1nc(C)cc(Nc2ccc3nc(C)cc(N)c3c2)n1", "note": "(racemic) [Rac1 inhibitor]", "values": [{"measurement": "entry of Ebola virus GP pseudotype (luciferase activity)", "setting": "[1]", "value": "inhibits Ebola virus entry"}, {"measurement": "entry of VSV GP pseudotype (luciferase activity)", "setting": "VSV GP pseudotype", "value": "unaffected"}]}
{"compound": "COc1ccc([C@@H]2Sc3ccccc3N(CCN(C)C)C(=O)[C@@H]2OC(C)=O)cc1", "note": "[Diltiazem]", "values": [{"measurement": "infection by virus-like particles bearing Ebola virus env (GFP-expressing cells)", "setting": "[2]", "value": "potent and specific blockers"}]}
{"compound": "COc1ccc(S(=O)(=O)Nc2ccccc2CN(C)C/C=C/c2ccc(Cl)cc2)cc1", "note": "[KN-92]", "values": [{"measurement": "reduction in infection by the pseudotyped virus", "setting": "[3]", "value": "~50", "unit": "%"}, {"measurement": "infection of the VSV core EBOV pseudotyped virus", "setting": "[2]", "value": "not"}]}
{"compound": "COc1ccc(S(=O)(=O)N(CCO)c2ccccc2CN(C)C/C=C/c2ccc(Cl)cc2)cc1", "note": "[KN-93]", "values": [{"measurement": "infection by retrovirus pseudotype bearing Ebola virus env (luciferase activity)", "setting": "[4]", "value": "strong effect"}, {"measurement": "infection by retrovirus pseudotype bearing eMLV env (luciferase activity)", "setting": "[5]", "value": "blocking only the Ebola infection"}, {"measurement": "infection of the VSV core EBOV pseudotyped virus", "setting": "[2]", "value": "significantly impacted"}, {"measurement": "infection with Ebola virus pseudotyped VSV particles", "setting": "[2]; 10 μM", "value": "specifically blocked infection"}]}
{"compound": "O=c1cc(N2CCOCC2)oc2c(-c3ccccc3)cccc12", "note": "[LY294002]", "values": [{"measurement": "IC50", "setting": "[3]; Zaire ebolavirus, HEK293, read-out: IC50 value for infection of EBOV pseudotyped lentivirus", "value": "6.5 ± 1.1", "unit": "µM"}]}
{"compound": "COCCOC(=O)C1=C(C)NC(C)=C(C(=O)OC(C)C)C1c1cccc([N+](=O)[O-])c1", "note": "(stereo not shown) [Nimodopine]", "values": [{"measurement": "Ebola virus-like particle infection/entry, calmodulin inhibitors and L-channel blocking drugs", "setting": "[2]", "value": "effective"}]}
{"compound": "CC(COc1ccccc1)N(CCCl)Cc1ccccc1", "note": "(stereo not shown) [Phenoxybenzamine]", "values": [{"measurement": "Ebola virus-like particle infection/entry, calmodulin inhibitors and L-channel blocking drugs", "setting": "[2]", "value": "inhibited"}, {"measurement": "Venezuelan equine encephalitis virus-like particle infection", "setting": "[6]", "value": "not"}]}
{"compound": "COc1ccc2cc1Oc1ccc(cc1)C[C@H]1c3cc(c(OC)cc3CCN1C)Oc1c(OC)c(OC)cc3c1[C@H](C2)N(C)CC3", "note": "[Tetrandine]", "values": [{"measurement": "infection by virus-like particles bearing Ebola virus env (GFP-expressing cells)", "setting": "[2]", "value": "potent and specific blockers"}]}
{"compound": "CN1CCN(CCCN2c3ccccc3Sc3ccc(C(F)(F)F)cc32)CC1", "note": "[Trifluorperazine]", "values": [{"measurement": "Ebola virus-like particle infection/entry, calmodulin inhibitors and L-channel blocking drugs", "setting": "[2]", "value": "inhibited"}, {"measurement": "Venezuelan equine encephalitis virus-like particle infection", "setting": "[6]", "value": "not"}]}
{"compound": "N#CC(=C(/N)Sc1ccccc1N)/C(C#N)=C(\\N)Sc1ccccc1N", "note": "[U0126]", "values": [{"measurement": "entry of Ebola virus GP pseudotype (luciferase activity)", "setting": "[1]", "value": "not"}]}
{"compound": "COc1ccc(CCN(C)CCCC(C#N)(c2ccc(OC)c(OC)c2)C(C)C)cc1OC", "note": "(stereo not shown) [Verapamil]", "values": [{"measurement": "Ebola virus-like particle infection/entry, calmodulin inhibitors and L-channel blocking drugs", "setting": "[2]", "value": "highly effective"}, {"measurement": "Ebola virus induced cytopathic effect", "setting": "[7]", "value": "reduced or significantly prevented"}]}
{"compound": "NCCCCCCNS(=O)(=O)c1cccc2c(Cl)cccc12", "note": "[W7]", "values": [{"measurement": "Ebola virus-like particle infection/entry, calmodulin inhibitors and L-channel blocking drugs", "setting": "[2]", "value": "inhibited"}, {"measurement": "Venezuelan equine encephalitis virus-like particle infection", "setting": "[6]", "value": "not"}]}
{"compound": "Cl.N", "note": "[ammonium chloride]", "values": [{"measurement": "entry of Ebola virus GP pseudotype (luciferase activity), assay validation", "setting": "[1]", "value": "sensitive"}]}
{"compound": "CO/C1=C\\C(C)=C\\[C@@H](C)[C@@H](O)[C@@H](C)C/C(C)=C/C=C/[C@H](OC)[C@@H]([C@@H](C)[C@@H](O)[C@H](C)[C@@]2(O)C[C@@H](O)[C@H](C)[C@@H](C(C)C)O2)OC1=O", "note": "[bafilomycin A1]", "values": [{"measurement": "entry of Ebola virus GP pseudotype (luciferase activity), assay validation", "setting": "[1]", "value": "sensitive"}]}
{"compound": "Methoxyverapamil", "values": [{"measurement": "Ebola virus-like particle infection/entry, calmodulin inhibitors and L-channel blocking drugs", "setting": "[2]", "value": "highly effective"}, {"measurement": "infection of live Ebola Zaire virus (plaque numbers normalized to DMSO)", "setting": "[8]", "value": "inhibition of infection"}]}
